“Also recorded” adds a separate entry of the source.
What was measured:
[1] = system: hippocampal CA3 pyramidal neurons; experiment: Whole-cell voltage clamp recordings of sEPSCs in offspring after maternal pretreatment; format: in vivo, rat; conditions: P15 VPA rats, maternal bumetanide pretreatment; −70 mV; result in words
Procedure: Standard whole-cell recordings were performed in coronal neocortical rat or mouse brain slices at room temperature (20-22° C.) from the soma of hippocampal CA3 neurons using an EPC-10 (HEKA Elektronik, Germany) amplifier and filtered at 3-10 kHz. The internal solution contained (in mM): 130 K-gluconate, 10 Na-gluconate, 4 NaCl, 4 MgATP, 4 phosphocreatine, 10 HEPES, and 0.3 GTP (pH 7.3 with KOH). Biocytin (final concentration 0.3-0.5%) was added to the pipette solution to label the neurons from which recordings were obtained. Neurons were visualized by using infrared DIC video microscopy. Spontaneous postsynaptic currents were recorded for […] at the reversal potentials for […] currents (−70 mV). It should be specifically noted that all recordings were made in normal ACSF (1.3 mM MgCl2). Stored data were analyzed using the Mini Analysis 6.0.3 (Synaptosoft Inc., Chapell Hill, N.C.) and Origin (MicroCal, Northampton, Mass.) software. To minimize potential sampling bias, the pups from at least three deliveries for each condition were studied. Data are expressed as mean±S.E.M.
Bumetanide (10 μM), Oxytocin (1 μM) and Isoguvacine (2 μM) were directly added to the perfusion solutions. Bumetanide pretreatment (2-2.5 mg/kg) was given to the dams in drinking water. All drugs used were purchased from Sigma. […]

[2] = system: Valproate rat model of autism; experiment: Isolation-induced ultrasonic vocalizations; format: in vivo
Procedure: Time-mated female Wistar rats at gestational day E7-8 were housed under standard laboratory conditions. The in utero valproic acid (VPA) rodent model of autism spectrum disorders has been previously described in detail. Briefly, the sodium salt of VPA (Sigma-Aldrich) was dissolved in physiological saline solution to a concentration of 300 mg/ml. Pregnant rats received a single intra-peritoneal dose of 600 mg/kg on gestational day 12 (E12). The control dams received a single similar volume injection of saline at the same gestational time-point. Dams were housed individually and allowed to raise their own litters. The offspring were used for experiments on embryonic day 20 (E20) and postnatal (P) days 0, 2, 4, 7, 15 and 30 (after being weaned at P23). Experiments were carried out on offspring of either sex.
To induce ultrasonic vocalizations, […], and were placed into an isolation box (23×28×18 cm) located inside a sound attenuating isolation cubicle (54×57×41 cm; Coulbourn Instruments, Allentown, Pa., USA), and evaluated for ultrasonic vocalizations during a three minutes test. An ultrasound microphone (Avisoft UltraSoundGate Condenser microphone capsule CM16/CMPA, Avisoft Bioacoustics, Berlin, Germany), placed in the roof of the box, was sensitive to frequencies of 10 to 250 kHz. Vocalizations were recorded using the Avisoft Recorder software (version 4.2) with a sampling rate of 250 kHz in 16 bit format. For acoustical analysis, recordings were transferred to SASLab Pro (version 5.2; Avisoft Bioacoustics) and a fast Fourier transformation was conducted (512 FFT-length, 100% frame, Hamming window and 75% time window overlap). The accuracy of call detection was verified manually by an educated user. A Pearson correlation coefficient was computed to assess the relationship between Automatic and Manual analysis. There was 0.99 correlation between the two variables.
Bumetanide (10 μM), Oxytocin (1 μM) and Isoguvacine (2 μM) were directly added to the perfusion solutions. Bumetanide pretreatment (2-2.5 mg/kg) was given to the dams in drinking water. All drugs used were purchased from Sigma. SSR126768A (Sanofi-Synthelabo) pretreatment (1 mg/kg) was given to the dams in drinking water.

[3] = P4 VPA rats + maternal BUM pretreatment
[4] = P4 control rats + maternal BUM pretreatment

In the case of `CCCCNc1cc(C(=O)O)cc(S(N)(=O)=O)c1Oc1ccccc1` [bumetanide], the sEPSCs frequency [1] is reported as “decreases; also recorded: significantly reduced”, the “behavioral deficit (smaller number and shorter total duration of calls)” value ([2]; P4 VPA offspring, maternal bumetanide pretreatment, result in words) is reported as “rescued this behavioral deficit” and the “Number of calls, isolation-induced USVs mean ± S.E.M” value [2, 3] is reported as 56 ± 25 (n = 20). The “Total duration of calls, isolation-induced USVs mean ± S.E.M” value [2, 3] was 4 ± 2 (n = 20), the “Number of calls, isolation-induced USVs mean ± S.E.M” value [2, 4] was 62.6 ± 27.4 (n = 18) and the “Total duration of calls, isolation-induced USVs mean ± S.E.M” value [2, 4] was 4.6 ± 2.3 (n = 18).
